Several values for one entry are separate records, joined by “and”; a condition that tells them apart may be missing. Identical values can stand only once. Like-named read-outs stand apart in the source and are kept apart here.

This is an account of results in paper PMC8590616 (European Journal of Pharmacology, 2021).

For data set [1] the following is noted: cited from earlier work.
Data set [2] has as its target T1, hERG1 (Homo sapiens, UniProt Q12809). Kind of data set: Manual patch-clamp, standard 2-step hERG protocol at PT. Format: cell-based.
The target in data set [3] is T2, hNav1.5 (Homo sapiens, UniProt Q14524). Kind of data set: Peak INa at PT, manual patch-clamp, HEK293 cells. Format: cell-based. To be noted: for INa peak Hill coefficient nH: PT. In general terms: Patch clamp records ionic current or voltage across a cell membrane.
T2 sequence (Q14524 whole entry): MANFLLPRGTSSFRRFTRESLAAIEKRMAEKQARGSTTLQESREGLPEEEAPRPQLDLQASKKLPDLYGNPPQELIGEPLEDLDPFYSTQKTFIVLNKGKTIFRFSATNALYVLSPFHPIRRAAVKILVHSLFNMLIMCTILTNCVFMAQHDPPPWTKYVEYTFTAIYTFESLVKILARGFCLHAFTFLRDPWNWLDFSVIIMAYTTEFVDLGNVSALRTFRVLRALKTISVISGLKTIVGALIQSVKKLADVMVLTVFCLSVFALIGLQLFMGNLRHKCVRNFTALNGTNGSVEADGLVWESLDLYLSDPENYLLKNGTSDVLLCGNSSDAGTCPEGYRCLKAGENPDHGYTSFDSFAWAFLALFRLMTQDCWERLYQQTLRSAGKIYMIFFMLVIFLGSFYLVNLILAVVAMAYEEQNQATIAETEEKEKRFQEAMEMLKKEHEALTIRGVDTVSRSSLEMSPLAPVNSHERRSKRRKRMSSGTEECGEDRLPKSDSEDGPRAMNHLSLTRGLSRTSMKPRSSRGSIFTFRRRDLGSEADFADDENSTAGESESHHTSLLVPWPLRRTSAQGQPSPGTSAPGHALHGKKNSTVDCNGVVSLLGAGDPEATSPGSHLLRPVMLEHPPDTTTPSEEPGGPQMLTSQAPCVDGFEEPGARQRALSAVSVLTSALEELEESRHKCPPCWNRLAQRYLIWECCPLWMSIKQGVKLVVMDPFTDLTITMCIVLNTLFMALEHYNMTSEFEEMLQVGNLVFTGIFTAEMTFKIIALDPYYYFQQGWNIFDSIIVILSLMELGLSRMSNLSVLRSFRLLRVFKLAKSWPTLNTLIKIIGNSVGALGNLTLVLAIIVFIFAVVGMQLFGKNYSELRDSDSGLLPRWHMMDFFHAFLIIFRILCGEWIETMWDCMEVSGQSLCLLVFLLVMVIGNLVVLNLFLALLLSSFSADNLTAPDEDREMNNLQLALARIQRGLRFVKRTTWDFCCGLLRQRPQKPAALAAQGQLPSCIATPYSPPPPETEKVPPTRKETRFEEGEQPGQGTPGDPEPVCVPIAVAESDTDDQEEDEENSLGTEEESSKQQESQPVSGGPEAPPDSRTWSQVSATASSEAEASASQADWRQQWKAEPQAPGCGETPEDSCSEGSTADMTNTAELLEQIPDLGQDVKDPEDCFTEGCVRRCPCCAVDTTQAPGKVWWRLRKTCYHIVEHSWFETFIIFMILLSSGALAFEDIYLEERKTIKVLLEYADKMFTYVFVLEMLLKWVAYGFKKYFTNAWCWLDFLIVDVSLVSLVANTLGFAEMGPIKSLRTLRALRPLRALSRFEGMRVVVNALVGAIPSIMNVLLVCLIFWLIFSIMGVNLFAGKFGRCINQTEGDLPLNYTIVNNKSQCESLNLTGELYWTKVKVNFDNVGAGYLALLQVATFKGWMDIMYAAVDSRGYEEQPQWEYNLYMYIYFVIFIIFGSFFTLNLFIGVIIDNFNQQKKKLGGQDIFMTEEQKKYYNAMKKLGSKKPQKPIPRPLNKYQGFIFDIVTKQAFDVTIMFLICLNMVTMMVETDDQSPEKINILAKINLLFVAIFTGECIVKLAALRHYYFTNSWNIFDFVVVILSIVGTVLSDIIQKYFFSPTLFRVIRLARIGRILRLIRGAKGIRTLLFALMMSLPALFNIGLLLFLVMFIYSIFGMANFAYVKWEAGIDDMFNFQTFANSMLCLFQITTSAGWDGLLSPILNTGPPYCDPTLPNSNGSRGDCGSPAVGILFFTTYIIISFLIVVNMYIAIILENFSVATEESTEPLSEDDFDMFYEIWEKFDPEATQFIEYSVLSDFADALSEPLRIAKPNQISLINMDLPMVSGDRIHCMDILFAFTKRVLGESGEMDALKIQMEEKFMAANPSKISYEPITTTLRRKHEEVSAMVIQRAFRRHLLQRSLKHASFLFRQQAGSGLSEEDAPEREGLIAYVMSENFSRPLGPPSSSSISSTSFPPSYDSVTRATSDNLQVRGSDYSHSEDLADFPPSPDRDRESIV
In data set [4] the target is hKv7.1+hMinK (Homo sapiens, UniProt P51787). Kind of data set: IKs double-step voltage protocol, HEK293 cells. The data set is classed as cell-based. To be noted: for effect on plateau IKs level: highest concentration applied (100 μM).
hKv7.1+hMinK, sequence (P51787 whole entry): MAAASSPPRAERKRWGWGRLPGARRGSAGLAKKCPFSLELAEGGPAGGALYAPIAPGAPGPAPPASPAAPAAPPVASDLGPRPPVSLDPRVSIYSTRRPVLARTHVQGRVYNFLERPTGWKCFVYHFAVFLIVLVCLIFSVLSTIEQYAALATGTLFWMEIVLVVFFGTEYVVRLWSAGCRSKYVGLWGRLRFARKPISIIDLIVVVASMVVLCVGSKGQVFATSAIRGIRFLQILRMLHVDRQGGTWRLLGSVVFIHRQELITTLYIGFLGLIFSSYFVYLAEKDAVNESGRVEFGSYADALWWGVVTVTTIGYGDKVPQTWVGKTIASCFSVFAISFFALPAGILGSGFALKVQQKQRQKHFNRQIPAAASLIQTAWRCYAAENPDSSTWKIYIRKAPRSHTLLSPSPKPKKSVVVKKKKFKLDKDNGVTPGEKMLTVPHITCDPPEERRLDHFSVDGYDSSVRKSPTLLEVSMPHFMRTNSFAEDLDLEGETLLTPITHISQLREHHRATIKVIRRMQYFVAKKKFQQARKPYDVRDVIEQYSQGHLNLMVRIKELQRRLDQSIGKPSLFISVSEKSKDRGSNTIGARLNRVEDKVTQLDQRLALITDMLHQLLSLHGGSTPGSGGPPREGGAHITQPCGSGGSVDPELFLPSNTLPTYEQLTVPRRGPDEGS
The test system of data set [5] is peak voltage-dependent Na+ current (INa) in Pluricyte cardiomyocytes. Kind of data set: hiPSC-CM β-escin-perforated voltage-clamp: peak INa. Format: cell-based. Conditions: Homo sapiens, Cardiomyocyte; for IC50: read-out: peak INa IC50 in hiPSC-CM.
The test system of data set [6] is peak L-type Ca2+ current (ICaL) in Pluricyte cardiomyocytes. Kind of data set: hiPSC-CM β-escin-perforated voltage-clamp: peak ICaL. The data set is classed as cell-based. To be noted: Homo sapiens, Cardiomyocyte; for IC50: read-out: ICaL IC50.
Data set [7] concerns hERG (peak IKr). Kind of data set: hiPSC-CM β-escin-perforated voltage-clamp: peak IKr. Format: cell-based, human. To be noted: human.
Data set [8] relates to peak hERG current (IKr) in Pluricyte cardiomyocytes. The description is as above. The data set is classed as cell-based, human. Conditions: 5 μM; hiPSC-CM; individual experiments and average ± SD.
The test system of data set [9] is steady funny current (If) in Pluricyte cardiomyocytes. Kind of data set: hiPSC-CM β-escin-perforated voltage-clamp: steady funny current. The data set is classed as cell-based. To be noted: Homo sapiens, Cardiomyocyte, read-out: If IC50.
For data set [10], the system named is IKr. Conditions: read-out: IKr IC50, cited from earlier work.
Data set [11] deals with IKr. To be noted: read-out: IKr IC50, cited from earlier work. The source holds these as a separate data set.
The subject of data set [12] is IKr. To be noted: read-out: IKr IC50; Xenopus laevis oocytes ref Sánchez-Chapula et al. (2002); cited from earlier work.
Data set [13] relates to IKs. To be noted: human atrial myocytes ref Borsini et al. (2012), cited from earlier work.
For data set [14], the system named is IK1. Conditions: read-out: IK1 IC50; HEK293 ref Noujaim et al. (2011); cited from earlier work.
The subject of data set [15] is INa peak. To be noted: read-out: INa peak IC50; HEK293 ref Jordaan et al. (2021); cited from earlier work.
In data set [16] the test system is INa peak. Conditions: read-out: INa peak IC50; cat Purkinje fibers ref Sánchez-Chapula et al. (2001); cited from earlier work.
In data set [17] the test system is INa peak. To be noted: human atrial myocytes ref Borsini et al. (2012), cited from earlier work.
Data set [18] has as its system INa peak. To be noted: read-out: INa peak IC50; CHO, PT ref Delaunois et al. (2021); cited from earlier work.
The test system of data set [19] is INa late. Conditions: read-out: INa late IC50, CHO, cited from earlier work.
Data set [20] concerns ICaL. To be noted: read-out: ICaL IC50; HEK293 ref Jordaan et al. (2021); cited from earlier work.
Data set [21] has as its system ICaL. Conditions: read-out: ICaL IC50; CHO, RT ref Delaunois et al. (2021); cited from earlier work.
Data set [22] deals with ICaL. Conditions: read-out: ICaL IC50; cat Purkinje fibers ref Sánchez-Chapula et al. (2001); cited from earlier work.
Data set [23] concerns Ito. To be noted: read-out: Ito IC50; rat ventricular myocytes ref Wagner et al. (2010); cited from earlier work.
Data set [24] concerns If. To be noted: read-out: If IC50, cited from earlier work.
Data set [25] addresses T2, hNav1.5. Kind of data set: Peak INa in presence of ATX-II 20 nM at RT, HEK293 cells. Conditions: for IC50: INa peak IC50, hNav1.5, ATX-II 20 nM, Hill fit.
The target of data set [26] is T2, hNav1.5. Kind of data set: Late INa in presence of ATX-II 20 nM at RT, HEK293 cells. To be noted: for IC50: INa late IC50, hNav1.5, ATX-II 20 nM, end of tail current at 0 mV.
Data set [27] addresses T1, hERG1. Kind of data set: Manual whole-cell patch-clamp, standard 2-step hERG protocol at RT, HEK293T. To be noted: for Hill coefficient nH, hERG inhibition: manual patch-clamp, RT.
In data set [28] the target is T3, hKir2.1 (Homo sapiens, UniProt P63252).
T3 sequence (P63252 1-427): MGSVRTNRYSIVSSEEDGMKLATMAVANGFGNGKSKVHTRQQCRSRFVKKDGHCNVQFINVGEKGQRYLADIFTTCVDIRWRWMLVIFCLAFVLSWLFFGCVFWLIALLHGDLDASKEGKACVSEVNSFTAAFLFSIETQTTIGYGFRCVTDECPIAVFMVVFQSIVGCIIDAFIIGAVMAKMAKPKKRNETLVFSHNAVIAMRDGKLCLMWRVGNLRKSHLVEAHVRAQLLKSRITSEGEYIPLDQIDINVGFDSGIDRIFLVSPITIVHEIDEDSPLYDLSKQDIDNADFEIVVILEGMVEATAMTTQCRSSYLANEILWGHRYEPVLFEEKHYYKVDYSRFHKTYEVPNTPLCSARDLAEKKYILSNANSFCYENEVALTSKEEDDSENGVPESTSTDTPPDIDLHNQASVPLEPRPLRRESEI
To be noted: HEK-293T, read-out: IK1 (hKir2.1) IC50.

Data set [29] has as its target T1, hERG1. Kind of data set: Automated patch-clamp. Conditions: for Hill coefficient nH, hERG inhibition: automated patch-clamp, RT.
Data set [30] concerns IKr. To be noted: cited from earlier work.
The subject of data set [31] is ICaL. To be noted: cited from earlier work.
The mark [32] stands for this setting: standard 12-compounds panel ref Dutta et al., (2017).
Setting [33] is: read-out: peak INa, % of control values.
The mark [34] stands for this setting: read-out: peak ICaL, % of control values.
Setting [35] is: CHO, PT ref Delaunois et al. (2021).
[36] abbreviates: CHO, PT ref TeBay et al. (2021).
The mark [37] stands for this setting: HEK293, RT ref Delaunois et al. (2021).
Where [38] appears, read: 3 μM, guinea pig SAN cells ref Capel et al. (2015).

T1 sequence (Q12809 whole entry): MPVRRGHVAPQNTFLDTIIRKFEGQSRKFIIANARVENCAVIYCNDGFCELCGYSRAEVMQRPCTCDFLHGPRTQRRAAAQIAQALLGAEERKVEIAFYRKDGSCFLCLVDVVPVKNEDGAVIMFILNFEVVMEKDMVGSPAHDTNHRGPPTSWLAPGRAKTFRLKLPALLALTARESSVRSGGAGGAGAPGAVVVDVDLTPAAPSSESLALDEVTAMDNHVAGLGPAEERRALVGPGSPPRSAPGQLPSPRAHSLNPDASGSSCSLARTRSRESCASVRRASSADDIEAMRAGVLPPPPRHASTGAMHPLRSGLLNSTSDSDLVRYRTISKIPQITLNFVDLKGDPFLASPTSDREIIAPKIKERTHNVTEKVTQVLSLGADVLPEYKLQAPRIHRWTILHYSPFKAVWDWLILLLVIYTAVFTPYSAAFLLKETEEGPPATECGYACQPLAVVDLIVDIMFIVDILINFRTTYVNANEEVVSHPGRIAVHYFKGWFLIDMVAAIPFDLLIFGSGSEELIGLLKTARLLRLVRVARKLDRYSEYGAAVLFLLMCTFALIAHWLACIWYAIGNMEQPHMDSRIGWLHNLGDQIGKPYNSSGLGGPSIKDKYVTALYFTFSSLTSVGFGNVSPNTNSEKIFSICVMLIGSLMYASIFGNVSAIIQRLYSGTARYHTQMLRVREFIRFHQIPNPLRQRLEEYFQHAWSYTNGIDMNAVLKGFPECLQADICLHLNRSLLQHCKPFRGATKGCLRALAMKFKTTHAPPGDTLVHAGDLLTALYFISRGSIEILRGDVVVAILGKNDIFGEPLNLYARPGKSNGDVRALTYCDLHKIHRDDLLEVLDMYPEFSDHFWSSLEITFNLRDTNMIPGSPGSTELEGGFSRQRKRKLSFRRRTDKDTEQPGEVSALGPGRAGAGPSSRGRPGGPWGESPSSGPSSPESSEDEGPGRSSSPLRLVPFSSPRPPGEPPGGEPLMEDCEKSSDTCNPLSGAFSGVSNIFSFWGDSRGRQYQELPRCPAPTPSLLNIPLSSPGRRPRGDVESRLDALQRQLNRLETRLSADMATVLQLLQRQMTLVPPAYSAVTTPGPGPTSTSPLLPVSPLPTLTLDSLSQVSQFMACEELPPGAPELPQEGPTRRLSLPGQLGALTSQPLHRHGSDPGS

One may read the Cmax as the highest concentration seen after dosing. As to `CN(C)CCCN1c2ccccc2Sc2ccc(Cl)cc21` [Chlorpromazine], the Cmax in data set [1] (setting [32]) was 38 nM.
For `COc1ccc([C@@H]2Sc3ccccc3N(CCN(C)C)C(=O)[C@@H]2OC(C)=O)cc1` [Diltiazem], the maximum concentration (Cmax) in data set [1] (setting [32]) is 122 nM.
Take `Cc1cccc(C)c1OCC(C)N` (stereo not shown) [Mexiletine]: the peak concentration (Cmax) in [1] (setting [32]) is 4130 nM.
Turning to `Cc1nccn1CC1CCc2c(c3ccccc3n2C)C1=O` (stereo not shown) [Ondansetron], the Cmax in [1] (setting [32]) was 139 nM.
Take `COc1ccccc1OCC(O)CN1CCN(CC(=O)Nc2c(C)cccc2C)CC1` (stereo not shown) [Ranolazine]: in [1] (setting [32]), the highest concentration (Cmax) is 1950 nM.
As to `CC(C)NCC(O)c1ccc(NS(C)(=O)=O)cc1` (stereo not shown) [Sotalol], the highest concentration (Cmax) in data set [1] (setting [32]) was 14700 nM.
Regarding `CC(C)(C)c1ccc(C(O)CCCN2CCC(C(O)(c3ccccc3)c3ccccc3)CC2)cc1` (stereo not shown) [Terfenadine], in data set [1] (setting [32]), the Cmax was 4 nM.
Usually IC50 stands for the midpoint of a concentration-inhibition curve. What is called inhibition is the change of the read-out against control, counted positive when it falls. As to `CCN(CC)CCCC(C)Nc1ccnc2cc(Cl)ccc12` (stereo not shown) [chloroquine], the “Hill coefficient nH, hERG inhibition” value in data set [2] is given as 1.25; in data set [27] it was 0.90; in data set [29], 1.36. The half-maximal inhibitory concentration (IC50) was 39.3 µM in data set [3]; over 100 µM in data set [4]; 45 µM in [5]; 30.7 µM in data set [6]; over 162 µM in data set [9]; 0.96 µM in data set [10] (HEK293, RT ref Borsini et al. (2012)). In addition, the IC50 is 2.5 µM in data set [10] (HEK293, RT ref Traebert et al. (2004)); 7.77 µM in data set [11] (CHO ref Jordaan et al. (2021)); 1.03 µM in data set [11] (setting [35]); 1.47 µM in [11] (setting [36]); 8.4 µM in [12]; 115 µM in data set [13] (read-out: IKs IC50). Also, the IC50 is 1.2 µM in data set [14]; 8.48 µM in [15]; 12.2 µM in data set [16]; 40.4 µM in [17] (read-out: INa peak IC50); 14 µM in [18]; 11.6 µM in [19] (PT ref Delaunois et al. (2021)). Also, the IC50 in data set [19] (RT ref Delaunois et al. (2021)) is 109 µM; in [20], 3.05 µM; in data set [21] it was 17.9 µM; in [22], 21.2 µM; in data set [23] it was 4600 µM; in [24] (setting [37]) it was 228 µM. For the same compound, the results for the concentration for half-maximal inhibition (IC50) in data set [25] and in data set [26] were 159 µM and 30.4 µM, respectively. The “INa peak Hill coefficient nH” value was 0.97 in data set [3] and 0.98 in data set [25]. In addition, the “effect on plateau IKs level” value in [4] was “only slightly inhibited”. Besides, the inhibition at 5 µM in [5] (read-out: peak INa average inhibition) stood at 10%. Further, the activity at 5 µM in data set [5] (setting [33]) is 90 ± 12%; in data set [6] (setting [34]), 86 ± 9%; in data set [7], 37.2%. The figures for the potency estimated from few doses in data set [7] and in data set [28] were 2.96 µM and 5.86 µM, respectively. Besides, the “peak IKr % inhibition” value in [8] was 62.78 ± 11.12%. Besides, the Cmax in data set [1] (Table 2 ref Borsini et al. (2012)) is 410 nM. Further, the “Cmax, maximal free plasma therapeutic concentration” value in data set [1] (usual doses ref Borsini et al., 2012) was 0.41 µM. Besides, the IKs % block in [13] (10 μM) is 8%. For the same compound, in data set [17] (30 μM), the “INa peak % block” value is given as 42.6%. In addition, in data set [26], the “INa late Hill coefficient nH” value worked out at 0.85.
As for `CCN(CCO)CCCC(C)Nc1ccnc2cc(Cl)ccc12` (stereo not shown) [hydroxychloroquine], the IC50 is 42.4 µM in data set [3]; over 100 µM in data set [4]; 52.5 µM in data set [5]; 90 µM in data set [6]; over 990 µM in data set [9]; 9.7 µM in data set [11] (CHO ref Jordaan et al. (2021)). Further, the IC50 is 2.66 µM in [11] (setting [35]); 3.78 µM in data set [11] (setting [36]); 6.97 µM in data set [11] (CHO, RT ref Delaunois et al. (2021)); 5.6 µM in data set [30] (read-out: IKr IC50, guinea pig SAN cells, PT ref Capel et al. (2015)); over 300 µM in data set [15]; 17 µM in [18]. The IC50 is 21.4 µM in [19] (PT ref Delaunois et al. (2021)); 92.9 µM in [19] (RT ref Delaunois et al. (2021)); 7.64 µM in [20]; 66.3 µM in data set [21]; 22 µM in data set [31] (read-out: ICaL IC50, guinea pig SAN cells, PT ref Capel et al. (2015)); over 300 µM in data set [24] (HEK293, PT ref Delaunois et al. (2021)). In addition, the IC50 in data set [24] (setting [37]) is 372 µM; in data set [25], 96.2 µM; in data set [26], 64.9 µM; in data set [27] it was 4.79 µM; in [29] it was 3.42 µM. Moreover, the results for the “INa peak Hill coefficient nH” value in [3] and in data set [25] were 1.02 and 0.81, respectively. In addition, the “effect on plateau IKs level” value in data set [4] is “only slightly inhibited”. Also, the activity at 10 µM in data set [5] (setting [33]) turned out to be 84 ± 16%; in data set [6] (setting [34]), 90 ± 12%. Besides, in data set [1] (Table 2 ref Yao et al. (2020)), the Cmax is 495 nM. In addition, the “Cmax, maximal free plasma therapeutic concentration” value in data set [1] (usual doses ref Yao et al., 2020) is 0.495 μM and 215 ng/ml; in data set [1] (usual doses ref Yao et al., 2020, listed as Hydroxychloroquine), 0.495 μM and 215 ng/ml. The IKr % block in data set [30] (setting [38]) is 35%. The ICaL % block in data set [31] (setting [38]) is reported as 12%. The “INa late Hill coefficient nH” value in data set [26] was 0.89. For the same compound, the “Hill coefficient nH, hERG inhibition” value in data set [27] is reported as 0.85; in [29], 1.02. In addition, the potency estimated from few doses in data set [28] is 29.3 µM.
